According to patent US20210085692A1, “AGENTS, COMPOSITIONS AND METHODS FOR TREATING AND PREVENTING ALZHEIMER'S DISEASE” (UNIVERSITY OF SOUTHERN CALIFORNIA, priority 2018, published 2021):

Tests used:
[1] = Phase 1 multiple ascending dose clinical trial: plasma levels after weekly intravenous infusion; format: in vivo, human; conditions: for Cmax: human, plasma
Experimental: (§1) Clinical Trials were carried out in adult humans (see gov Identifier: NCT02221622 for the ongoing Phase 1b/2a clinical trial at https://clinicaltrials.gov/ct2/show/NCT02221622).
(§2) A randomized double-blind, placebo controlled, multiple ascending dose, phase 1 clinical trial was conducted in patients with mild cognitive impairment due to AD or mild AD or dementia.
(§3) Participants were randomly assigned to receive weekly intravenous infusion of either 2 mg, 4 mg, or 6 mg of Allo or placebo (N=6/group) for 12 weeks. Primary outcomes were to assess safety, tolerability and determine maximally tolerated dose (MTD). Secondary exploratory outcomes were the feasibility and impact of Allo on MRI indicators of regeneration and cognition. Lymphocyte derived iPSCs differentiated to neural stem cells were used to develop biomarker strategy to identify potential regenerative responders.
The standard Phase I dose escalation double-blind, placebo-controlled, single site trial included 24 research participants in three dose cohorts. Each cohort included 8 research participants randomized to drug or placebo in a 6:2 allocation ratio. Cohorts as follows: • Dosing cohort 1) 2 mg Allo or placebo • Dosing cohort 2) 4 mg Allo or placebo • Dosing cohort 3) 6 mg Allo or placebo Each dose cohort was separated by 6 weeks to process, obtain, and assess all safety and tolerability data.
The trial evaluated three doses (2.0, 4.0 and 6.0 mg) of allopregnanolone (Allo) in a delivery vehicle of 6% sulfobutylether-β-cyclodextrin and 0.9% sodium chloride and placebo containing an equal volume of 0.9% sodium chloride for injection USP administered by intravenous sinfusion once per week for 12 weeks. Although the dosing study is not powered to detect statistically significant treatment differences on MRI outcomes and cognition, the MRI is required per FDA safety concerns with respect to amyloid-related imaging abnormalities, such as micro hemorrhages, as per FDA correspondence. Grouped differences from placebo-treated participants were evaluated in an exploratory fashion using the outcomes planned for the larger phase 2, proof of concept trial in order to obtain parameter estimates for the trial design.]
Allo dose selection of 2.0, 4.0 and 6.0 mg was determined by pre-clinical dose response analyses for neurogenesis, an IV bridging study in 3×TgAD mice, prior clinical studies, physiologically-based pharmacokinetics (PBPK) modeling and simulations of pharmacodynamic responses using available pre-clinical and clinical data of non-sedative to mildly sedative doses Planned study Allo doses are within the FDA requirement to not exceed 157 nmol/L (50 ng/ml) plasma concentration Planned Allo dose equivalencies based on 70 kg human are: 2.0 mg=0.028 mg/kg; 4.0 mg=0.056/mg/kg; 6.0 mg=0.084 mg/kg. With respect to safety, intravenous doses of Allo in the same dose range as those for this trial have been administered previously with acceptable safety and. […] Allo in sulfobutylether-β-cyclodextrin and 0.9% sodium chloride formulation was administered intravenously over 30 minutes once per week for 12 weeks. Participants were monitored under medical supervision for a minimum of two hours after each dose. The regimen for Allo administration is based on preclinical analyses that indicate that a once per week treatment regimen results in increased neurogenesis with reduction in AD pathology.

[2] = tested on: patients with mild cognitive impairment due to AD or mild AD or dementia; assay: Phase 1 clinical trial: safety, tolerability and maximally tolerated dose; format: in vivo, human
Experimental: as §1, §2
as §3, with “Lymphocyte derived iPSCs differentiated to neural stem cells were used to develop biomarker strategy to identify potential regenerative responders.” left out
The trial evaluated three doses (2.0, 4.0 and 6.0 mg) of allopregnanolone (Allo) in a delivery vehicle of 6% sulfobutylether-β-cyclodextrin and 0.9% sodium chloride and placebo containing an equal volume of 0.9% sodium chloride for injection USP administered by intravenous sinfusion once per week for 12 weeks. […] Grouped differences from placebo-treated participants were evaluated in an exploratory fashion using the outcomes planned for the larger phase 2, proof of concept trial in order to obtain parameter estimates for the trial design.] […]

[3] = tested on: patients with mild cognitive impairment due to AD or mild AD or dementia; assay: Phase 1 clinical trial: MRI indicators of regeneration (gray matter, hippocampal volume); format: in vivo, human
[4] = tested on: patients with mild cognitive impairment due to AD or mild AD or dementia; assay: Phase 1 clinical trial: cognition (ADAScog14, Cog state); format: in vivo, human; conditions: 12 weeks, once per week
Experimental: as §2, §3
The standard Phase I dose escalation double-blind, placebo-controlled, single site trial included 24 research participants in three dose cohorts. […]
The trial evaluated three doses (2.0, 4.0 and 6.0 mg) of allopregnanolone (Allo) in a delivery vehicle of 6% sulfobutylether-β-cyclodextrin and 0.9% sodium chloride and placebo containing an equal volume of 0.9% sodium chloride for injection USP administered by intravenous sinfusion once per week for 12 weeks. […] Grouped differences from placebo-treated participants were evaluated in an exploratory fashion using the outcomes planned for the larger phase 2, proof of concept trial in order to obtain parameter estimates for the trial design.]

[5] = tested on: humanized ApoE3,3, ApoE4,4 and ApoE3,4 mice; assay: Novel Object Recognition (NOR) memory test; format: in vivo; conditions: for Novel Object Discrimination Index / Novel Object Exploration time: vs saline
Experimental: To access impact of Allopregnanolone (Allo) on memory function, humanized ApoE3,3, ApoE4,4 and ApoE3,4 mice were tested using Novel Object Recognition (NOR) in accordance with published literature (Antunes and Biala, Cogn Process. 2012 May; 13(2): 93-110; Ennaceur, Behav Brain Res. 2010 Dec. 31; 215(2):244-54. doi: 10.1016/j.bbr.2009.12.036. Epub 2010 Jan. 7; Leger et al., Nat Protoc. 2013 December; 8(12):2531-7. doi: 10.1038/nprot.2013.155. Epub 2013 Nov. 21; Piterkin et al., Learn. Mem., 15 (2008), pp. 785-791; Taglialatela et al., Behav Brain Res. 200(1): 95-99. 2009).
Behavioral NOR testing was conducted following 24 weekly injections of Allopregnanolone (Allo; 1.5 mg/mL) or saline (0.9%). The Allo and saline used to treat the mice were identical to the Allo and saline used in the clinical trial (ClinicalTrials.gov Identifier: NCT02221622).
Behavioral testing and analysis of behavioral outcomes were conducted blind to the experimental condition. Code for treatment groups was unblinded for statistical analyses by analyst who was independent of behavioral testing.
Difference in exploration time (in seconds) was calculated by subtracting the time spent exploring the familiar object from that of the novel object (Tn−Tf) and denoted by ‘Df’. Second, a ratio of the difference in exploration time to the total time spent exploring was calculated (Tn−Tf/Tn+Tf) and denoted by Discrimination Index (DI). The DI can vary between +1 and −1, where a positive score indicates more time spent with the novel object, a negative score indicates more time spent with the familiar object, and a zero score indicates a null preference (Antunes and Biala, 2012). The DI adjusts for difference in total exploration time (Broadbent et al.). Statistical analyses were conducted using Mann-Whitney test and p-value of less than 0.05 was considered significant.

[6] = intravenous doses in the same dose range, earlier studies; cited from earlier work
[7] = ApoE3:3 females and males, 24 weekly injections

CC(=O)[C@H]1CC[C@H]2[C@@H]3CC[C@H]4C[C@H](O)CC[C@]4(C)[C@H]3CC[C@]12C [Allo, 3α-hydroxy-5α-pregnan-20-one]
Correlation (R) of Cmax with Allo delivered in mg/kg dose ([1]; 2, 4 and 6 mg cohorts): 0.77
Time to peak plasma levels ([1]; from start of 30 minute intravenous infusion, AD patients): ≤ 30 min
Cmax ([1]; 2 mg intravenous infusion): 63 ± 21 nM
Cmax ([1]; 4 mg intravenous infusion): 130 ± 26 nM
Cmax ([1]; 6 mg intravenous infusion): 248 ± 84 nM
MTD, established by onset of sedation ([2]; intravenous infusion): > 6 mg
Adverse effects, serious adverse events, ARIA ([2]; twelve week exposure, multiple doses once per week): no reportable adverse effects, serious adverse events or ARIA
Left hippocampal volume (subfield analysis) ([3]; Allo 4 mg cohort, 12 weeks): increase in left hippocampal volume
Brain mass ([3]; human subjects over 55 years having Apo E4 genetic marker): increased brain mass
MRI based indicators of gray matter volume ([3]; structural analysis, 12 weeks): consistent with regeneration in select brain regions
Cognitive function measured by ADAScog14 [4]: not improved
Cog state indicators ([4]; some indicators): consistent with improvement
Novel Object Discrimination Index [5, 7]: no effect
Novel Object Exploration time [5, 7]: no effect, either positive or negative
Exploration of the novel object ([5]; ApoE 3:4 female mice, p=0.05): significantly increased
Ability to discriminate between novel vs familiar object (Discrimination Index) ([5]; ApoE 3:4 female mice, p=0.06): trended towards a significant increase
Novel Object Discrimination Index ([5]; ApoE 4/4 females and males, p<0.05): significantly increased
Novel Object Exploration time ([5]; ApoE 4:4 females, 24 weekly injections): significantly increased
Novel Object Exploration time ([5]; ApoE4:4 males, 24 weekly injections): trended towards an increase
TEAEs (nausea, mild sedation, fatigue, flushing, anxiety) [6]: mild and transient
